Patent publication US20250235457A1, “METHODS AND COMPOSITIONS FOR TREATING CDKL5 DISORDER USING ALLOPURINOL” (priority 2024, published 2025)

How the values were obtained:
[1] = test system: patient with CDKL5 deficiency disorder (CDD); assay: Off-label allopurinol treatment of a pediatric patient with CDD (case); format: in vivo, human
Description: CDD is a severe neurodevelopmental disorder characterized by treatment-resistant epilepsy, profound developmental delays, and significant motor impairments.
The patient presented with severe developmental delays since birth and had never met motor or speech milestones. […] The patient also experienced frequent, uncontrolled seizures despite being on a ketogenic diet and receiving physical, occupational, speech, and vision therapies. Their seizures were refractory to multiple anti-epileptic drugs (AEDs), including Keppra, Epidiolex, Soticlestat, Clonazepam, Sabril, Phenobarbital, and Oxcarbazepine.
Baseline assessments conducted prior to treatment initiation included a review of medical history, physical examination, laboratory tests, and functional evaluations.
Allopurinol was prescribed as an adjunct therapy to the patient's existing seizure management regimen without modifications to their ongoing AED treatments or dietary plan. The treatment protocol involved administering allopurinol at a dose of 100 mg per day, divided into two doses of 50 mg with lunch and 50 mg with dinner. The patient's progress was monitored over a 24-week period, unless adverse events necessitated an adjustment or discontinuation of the treatment. Caregivers maintained a daily diary to document seizure frequency, duration, and type, as well as changes in behavior, communication attempts, motor abilities, urine output, and general health.
Clinical assessments were conducted every four weeks, either virtually or in-person, to monitor safety and efficacy. Laboratory tests were performed every six weeks to evaluate uric acid levels, urinalysis, complete blood count (“CBC”), blood sugar levels, and other relevant indicators. EEG assessments were conducted at baseline, at eight-week intervals, and at the end of the study to evaluate changes in seizure activity and brain function. Regular evaluations by a pediatric neuro-ophthalmologist were included to assess visual and neurological health.
During the study, therapeutic interventions such as speech therapy, physical therapy, and the use of augmentative and alternative communication (AAC) devices were continued. Specific goals included improving functional communication through AAC, enhancing motor control, and increasing engagement with therapy activities. Progress in these areas was tracked alongside clinical outcomes to assess the comprehensive impact of allopurinol on the patient's quality of life.
At the time of treatment initiation, the patient weighed 18 kg. […] The end-of-study assessment included a final medical evaluation, EEG, laboratory tests, and a review of therapy outcomes to measure the safety and efficacy of allopurinol as a treatment for CDD.

CDKL2 = assay: qPCR of CDKL2 expression in the treated patient; format: in vivo, human
CDKL5-deficient mice [2] = assay: Marble burying test
[3] = test system: EB2 (MAPRE2) phosphorylation at phospho-Serine 222; assay: Western blot of EB2 phosphorylation in brain tissue of CDKL5-deficient mice; conditions: 10 days
[4] = 1:10 solution of DMSO:PBS (pH 7.2); 'believed to be approximately'; cited from earlier work
CDKL5-deficient mice [5] = assay: Hind limb clasping test; format: in vivo; conditions: Het CDKL5-deficient mice before vs after treatment, 5 and 10 days oral (FIG. 9)
Protocol: The hind limb clasping test was performed to assess motor function and neurological impairments in CDKL5-deficient mouse models before and after treatment with allopurinol. […] Mice were suspended by their tails for a duration of 2 minutes, and hind limb retraction behavior (referred to as clasping) was recorded. Video recordings were analyzed to determine total clasping time during the test. Each mouse was evaluated using a standardized scoring system based on the severity of hind limb clasping behavior: • 0. No limb clasping observed. • 1.
Testing was conducted at baseline (pre-treatment) and at 5 and 10 days following oral administration of allopurinol. The hind limb clasping scores were averaged for each group, and the results were analyzed to assess changes in motor impairments following treatment.

[6] = test system: pediatric patients diagnosed with CDKL5 disorder; assay: Prospective open-label clinical trial in pediatric patients with CDKL5 disorder; format: in vivo, human
Protocol: For the clinical trial, a prospective, open-label study was conducted between Aug. 1, 2023, and May 1, 2024, to evaluate the efficacy of allopurinol in pediatric patients diagnosed with CDKL5 disorder. The trial enrolled eight patients, aged 2 to 10 years, with a confirmed diagnosis of CDKL5 disorder and ongoing epilepsy that was resistant to conventional anti-epileptic drugs. Patients were required to have a stable seizure regimen for at least four weeks prior to participation. Those with a history of severe allergic reactions to allopurinol or other contraindicating medical conditions were excluded from the study. All patients were treated with allopurinol as an adjunct therapy to their existing anti-epileptic drug regimen, with the starting dose set at 10 mg/kg/day, administered orally in divided doses (twice daily, BID). The dosage was adjusted based on individual tolerability, and all treatment was closely supervised by a pediatric neurologist specializing in seizure disorders. Seizure frequency and severity were assessed at baseline and then at 4-week intervals throughout the 9-month study period. The primary endpoint of the study was the reduction in the frequency of major motor seizures, which was assessed using patient diaries and caregiver reports. Secondary endpoints included the severity of seizures (measured by the Modified Rankin Scale), overall neurological improvement, and quality of life, evaluated using the CDKL5 Disorder Disease-Specific Quality of Life (CDKL5-QoL) questionnaire. Statistical analysis was performed using paired t-tests to compare seizure frequency data between baseline and post-treatment periods, with a significance level set at p<0.05.

CDKL5 Het female mice = assay: Seizure monitoring (video and EEG) in CDKL5 Het female mice; format: in vivo; conditions: 30 mg/kg/day in drinking water, treated vs untreated controls
Description: A p-value of <0.05 was considered statistically significant.

[7] = test system: CDKL2 and GluN2B subunits in the hippocampal and cortical regions; assay: Histological / immunohistochemical analysis of brain tissue of CDKL5 Het mice; format: in vivo; conditions: treated animals, 30 mg/kg/day
Protocol: In addition to the clinical trial, a preclinical animal study was conducted using a mouse model of CDKL5 disorder (CDKL5 Het female mice). A total of eight mice were included in the study, with four receiving treatment and four serving as untreated controls. All mice were housed under standard laboratory conditions with a 12-hour light/dark cycle and ad libitum access to food and water. The treatment protocol involved the oral administration of allopurinol dissolved in drinking water at a target dose of 30 mg/kg/day. The solution was prepared in phosphate-buffered saline (PBS) with a concentration of 0.1 mg/mL allopurinol in a 1:10 solution of dimethyl sulfoxide (DMSO):PBS (pH 7.2). Control animals received an identical solution without allopurinol. Seizure activity was monitored daily throughout the study, with seizure severity and duration recorded using both video and electroencephalogram assessments. At the end of the study, brain tissue from both treated and untreated animals was collected for histological analysis, specifically to assess the expression of CDKL2 and GluN2B subunits in the hippocampal and cortical regions. Immunohistochemical staining was used to visualize the localization and abundance of these proteins. Data from the seizure monitoring were analyzed using an unpaired t-test, and histological data were quantified using image analysis software. […]

[8] = test system: phosphorylation of key synaptic proteins, including EB2 (MAPRE2); assay: Neuronal cultures derived from CDKL5-deficient models; format: cell-based
[9] = 100 mg per day, 24-week study period

Oc1ncnc2[nH]ncc12 [allopurinol]
EEG background activity ([1]; 100 mg per day adjunct, with a reduction in epileptic discharges): marked improvement
adverse effects [1, 9]: No adverse effects were reported
tolerability [1, 9]: well tolerated
CDKL5 Severity Scale Part 3 (Caregiver Report) ([1]; 3 months after treatment, before treatment 1, lower desirable): 0
CDKL5 Severity Scale Part 6 (Motor Skills) ([1]; 3 months after treatment, before treatment 2, higher desirable): 4
CDKL5 Severity Scale Part 4 (Clinician Report) ([1]; 3 months after treatment, before treatment 25, lower desirable): 25
CDKL5 Severity Scale Part 2 (Seizure Activity) ([1]; 3 months after treatment, before treatment 29, lower desirable): 29
CDKL5 Severity Scale Part 1 (General Health) ([1]; 3 months after treatment, before treatment 32, lower desirable): 21
CDKL5 Severity Scale Total Score ([1]; 3 months after treatment, before treatment 104): 69
CDKL5 Severity Scale Part 5 (Behavioral Skills) ([1]; 3 months after treatment, before treatment −1, higher desirable): 8
seizure status ([1]; person, 100 mg per day adjunct, after 3 months): completely seizure-free
quality of life (observational) ([1]; qualitative observational data): reduced sleep disturbances, improved saliva control, and decreased caregiver burden
cognitive and motor functions ([1]; therapist and caregiver observation): notable gains in cognitive and motor functions
patient's CDKL2 expression level (CDKL2; control group mean 5.44307×10^−6 (±2.26749×10^−6)): 1.7356×10^−5 (±1.302×10^−6)
increase in the expression of CDKL2 vs healthy donor controls (CDKL2; treated patient compared to healthy donor controls): 3 fold
marble burying capacity (CDKL5-deficient mice [2]; Het mice treated vs untreated Het mice, 30 mg/kg/day oral (FIG. 8)): improvement in marble burying capacity
crossing of the blood brain barrier (CDKL5-deficient mice [2]; inferred from the behavioral findings in CDKL5-deficient mice): crosses the blood brain barrier
phosphorylated EB2 isoforms 1 and 2 at ps222 ([3]; Het female mice brain, 30 mg/kg/day, vs untreated controls, not statistically significant (FIG. 2)): trend towards increased phosphorylation
phosphorylated EB2 isoform 3 at ps222 ([3]; Het female mice brain, 30 mg/kg/day, did not reach statistical significance (FIG. 3)): trend toward increased phosphorylation
EB2 phosphorylation levels ([3]; KO male and Het female mice, 30 mg/kg/day in drinking water): increased EB2 phosphorylation levels
solubility [4]: approximately 0.1 mg/ml
hind limb clasping behavior (CDKL5-deficient mice [5]): significant reduction in hind limb clasping behavior
patients demonstrating a decrease in seizure severity by at least one grade (Modified Rankin Scale) ([6]; 10 mg/kg/day): 75 % of patients
patients reporting improvements in sleep patterns, motor skills, and cognitive function (CDKL5-QoL) ([6]; 10 mg/kg/day): 87.5 % of patients
speech and motor delays ([6]; clinical trial conclusions): did not show marked improvements
mean reduction in major motor seizures ([6]; eight patients aged 2 to 10 years, 10 mg/kg/day oral BID adjunct, 9 months, baseline on average 12 times per week): 63.2%
reduction in seizure duration (CDKL5 Het female mice): 65%
reduction in seizure severity (CDKL5 Het female mice): 72.5%
CDKL2 expression in the hippocampal and cortical regions [7]: notable increase in CDKL2 expression
GluN2B subunit mislocalization [7]: partially corrected
phosphorylation of key synaptic proteins, including EB2 (MAPRE2) [8]: increased phosphorylation
